Source: patent publication EP1972333A1, “Stabilised aqueous solutions of ergolin compounds” (Axxonis Pharma AG, priority 2007, dated 2008)
Values after ≈ are worked out from the molar mass of the structure shown. Like-named read-outs stand apart in the source and are kept apart here.

Key:
[1] = Solubility of free ergoline compounds in water / phosphate-buffered solution; assay type: physicochemical; settings: for solubility: free compound, read-out: Löslichkeit; for Löslichkeit in Wasser: compared with Lisurid
Method: Für strukturverwandte Wirkstoffe, welche auf derselben Grundstruktur basieren, können ähnliche physikalischchemische Aktivitäten in vitro, in vivo sowie in klinischen Studien erwartet werden. Die Lisuridderivate Tergurid und Protergurid weisen Alkylsubstituenten am Stickstoff (N6) der Grundstruktur sowie eine Einfachbindung zwischen den Positionen 9 und 10 auf. […] Die Löslichkeit des freien Protergurid beträgt beispielsweise 2.6 mg/100 mL in einer phosphatgepufferten Lösung (pH 7.4). Die Löslichkeit des freien Lisurids kann entsprechend auf 2.2 mg/100 mL abgeschätzt werden, wobei dieser Wert aus den Löslichkeitsdaten der jeweiligen Wirkstoffe/Wirkstoffsalze kalkuliert wurde (Zimmermann I (1983) International Journal of Pharmaceutics 13: 57-65).

[2] = Solubility improvement by cosolvent; assay type: physicochemical; settings: Propylenglykol as low-dosed additive (weniger als 10%)
[3] = for Mittlere Fläche (Lisuridpeakfläche zur totalen Peakfläche des Chromatogramms): 9% Propylenglykol, no buffer, 2 mg/3 mL
Method: Die Wirkstoffkonzentration wurde auf 2 mg pro 3 mL eingestellt. Es wurde kein Puffersystem hinzugegeben. Das weitere Vorgehen umfasste das Einwiegen von 33.3 mg des Wirkstoffs in einen skalierten 50 mL Kolben, anschließende Zugabe des Propylenglykols (4.5g) sowie die Beigabe von 40 mL Wasser. Der Kolben wurde für mehrere Minuten geschüttelt und anschließend Ultraschall ausgesetzt, bis der Wirkstoff vollständig gelöst war. Der Kolben wurde auf Raumtemperatur abgekühlt und bis zur Markierung mit bidestilliertem Wasser aufgefüllt. Abschließend wurde zur Gewährleistung der Homogenität für eine weitere Minute geschüttelt. Die Lösung wurde in durchsichtige Glasampullen von 1 ml Volumen abgefüllt. Diese wurden luftdicht verschlossen und zum Lichtschutz mit Aluminiumfolie umwickelt. Die Ampullen wurden jeweils bei 6 bis 8°C, 25°C und 40°C aufbewahrt.

[4] = 60°C, one week, in the dark, 10080 min
Method: Als Additive wurden Propylenglykol und Cremophor ELP in Konzentrationen zwischen 1.00 und 10.00% eingesetzt. […] Die Lösungen wurden im Dunkeln in Glasbehältern bei 60°C für eine Woche aufbewahrt.

[5] = Stability of Lisuridhydrogenmaleat in citrate-buffered aqueous solutions (RP-HPLC, UV detection); settings: citrate buffer; for Färbung / degraded at 4320 h: no cosolvent; for Mittlere Fläche (Lisuridpeakfläche zur totalen Peakfläche des Chromatogramms): t 0 d; for degraded at 4320 h: 180 Tage, protected from light
[6] = oral, daily; 17th Report of the Joint FAO/WHO Expert Committee on Food Additives, 1974; cited from earlier work

CCN(CC)C(=O)N[C@H]1C=C2c3cccc4[nH]cc(c34)C[C@H]2N(C)C1 [Lisurid]
solubility ([1]; estimated, calculated from solubility data of the drugs/drug salts (Zimmermann 1983)): ~22 µg/mL

CCN(CC)C(=O)N[C@H]1C=C2c3cccc4[nH]cc(c34)C[C@H]2N(C)C1 [Lisuridhydrogenmaleat]
Löslichkeit des Wirkstoffs [2]: verbesserten Löslichkeit | Wirkstoff zersetzt ([3]; 40°C, 180 Tage, 9% Propylenglykol (cosolvent)): ~10% | Mittlere Fläche (Lisuridpeakfläche zur totalen Peakfläche des Chromatogramms) ([3]; Erhöhte Temperatur (40°C), t 0 d): 99.80 Prozent | Mittlere Fläche (Lisuridpeakfläche zur totalen Peakfläche des Chromatogramms) ([3]; Erhöhte Temperatur (40°C), t 7 d): 99.33 Prozent | Mittlere Fläche (Lisuridpeakfläche zur totalen Peakfläche des Chromatogramms) ([3]; Erhöhte Temperatur (40°C), t 30 d): 97.59 Prozent | Mittlere Fläche (Lisuridpeakfläche zur totalen Peakfläche des Chromatogramms) ([3]; Erhöhte Temperatur (40°C), t 90 d): 94.06 Prozent | Mittlere Fläche (Lisuridpeakfläche zur totalen Peakfläche des Chromatogramms) ([3]; Erhöhte Temperatur (40°C), t 180 d): 89.76 Prozent | Wirkstoff zerfallen ([3]; Kühlschrank (6-8°C), 180 Tage, protected from light, 9% Propylenglykol (cosolvent)): ~0.4% | Mittlere Fläche (Lisuridpeakfläche zur totalen Peakfläche des Chromatogramms) ([3]; Kühlschrank (6-8°C), t 0 d): 99.80 Prozent | Mittlere Fläche (Lisuridpeakfläche zur totalen Peakfläche des Chromatogramms) ([3]; Kühlschrank (6-8°C), t 30 d): 99.67 Prozent | Mittlere Fläche (Lisuridpeakfläche zur totalen Peakfläche des Chromatogramms) ([3]; Kühlschrank (6-8°C), t 90 d): 99.52 Prozent | Mittlere Fläche (Lisuridpeakfläche zur totalen Peakfläche des Chromatogramms) ([3]; Raumtemperatur (25°C), t 0 d): 99.80 Prozent | Mittlere Fläche (Lisuridpeakfläche zur totalen Peakfläche des Chromatogramms) ([3]; Raumtemperatur (25°C), t 30 d): 99.46 Prozent | Mittlere Fläche (Lisuridpeakfläche zur totalen Peakfläche des Chromatogramms) ([3]; Raumtemperatur (25°C), t 90 d): 99.15 Prozent | Mittlere Fläche (Lisuridpeakfläche zur totalen Peakfläche des Chromatogramms) ([3]; Raumtemperatur (25°C), t 180 d): 98.35 Prozent | Wirkstoff zerfallen ([4]; 1% Cremophor ELP): 14,3% | Wirkstoff zerfallen ([4]; 10% Cremophor ELP): 21.3% | Färbung ([5]; 40°C, after 30 Tagen): signifikante gelbe Färbung | Färbung ([5]; 40°C, after weiteren 60 Tagen (following the first 30)): Braun | Mittlere Fläche (Lisuridpeakfläche zur totalen Peakfläche des Chromatogramms) ([5]; Erhöhte Temperatur (40°C), pH 3.5, 2 mg/3 mL): 99,87 Prozent | Mittlere Fläche (Lisuridpeakfläche zur totalen Peakfläche des Chromatogramms) ([5]; Erhöhte Temperatur (40°C), pH 4.5, 2 mg/3 mL): 99,79 Prozent | Mittlere Fläche (Lisuridpeakfläche zur totalen Peakfläche des Chromatogramms) ([5]; Erhöhte Temperatur (40°C), pH 5.1, 2 mg/3 mL): 100,00 Prozent | Mittlere Fläche (Lisuridpeakfläche zur totalen Peakfläche des Chromatogramms) ([5]; Kühlschrank (6-8°C), pH 3.5, 2 mg/3 mL): 99,87 Prozent | Mittlere Fläche (Lisuridpeakfläche zur totalen Peakfläche des Chromatogramms) ([5]; Kühlschrank (6-8°C), pH 4.5, 2 mg/3 mL): 99,79 Prozent | Mittlere Fläche (Lisuridpeakfläche zur totalen Peakfläche des Chromatogramms) ([5]; Kühlschrank (6-8°C), pH 5.1, 2 mg/3 mL): 100,00 Prozent | Mittlere Fläche (Lisuridpeakfläche zur totalen Peakfläche des Chromatogramms) ([5]; Raumtemperatur (25°C), pH 3.5, 2 mg/3 mL): 99,87 Prozent | Mittlere Fläche (Lisuridpeakfläche zur totalen Peakfläche des Chromatogramms) ([5]; Raumtemperatur (25°C), pH 4.5, 2 mg/3 mL): 99,79 Prozent | Mittlere Fläche (Lisuridpeakfläche zur totalen Peakfläche des Chromatogramms) ([5]; Raumtemperatur (25°C), pH 5.1, 2 mg/3 mL): 100,00 Prozent | degraded at 4320 h ([5]; Wirkstoff zersetzt, 40°C): ≤ 30% | degraded at 4320 h ([5]; Zersetzung, Kühlschrank (6-8°C)): ~0.7% | remaining at 720 h ([5]; pH 3.5, Mittlere Fläche (Lisuridpeakfläche zur totalen Peakfläche des Chromatogramms), Erhöhte Temperatur (40°C), pH 3.5, t 30 d, 2 mg/3 mL): 90.4% | remaining at 2160 h ([5]; pH 3.5, Mittlere Fläche (Lisuridpeakfläche zur totalen Peakfläche des Chromatogramms), Erhöhte Temperatur (40°C), pH 3.5, t 90 d, 2 mg/3 mL): 73.4% | remaining at 4320 h ([5]; pH 3.5, Mittlere Fläche (Lisuridpeakfläche zur totalen Peakfläche des Chromatogramms), Erhöhte Temperatur (40°C), pH 3.5, t 180 d, 2 mg/3 mL): 69.9% | remaining at 2160 h ([5]; pH 4.5, Mittlere Fläche (Lisuridpeakfläche zur totalen Peakfläche des Chromatogramms), Erhöhte Temperatur (40°C), pH 4.5, t 90 d, 2 mg/3 mL): 90.4% | remaining at 4320 h ([5]; pH 4.5, Mittlere Fläche (Lisuridpeakfläche zur totalen Peakfläche des Chromatogramms), Erhöhte Temperatur (40°C), pH 4.5, t 180 d, 2 mg/3 mL): 87.7% | remaining at 4320 h ([5]; pH 5.1, Mittlere Fläche (Lisuridpeakfläche zur totalen Peakfläche des Chromatogramms), Erhöhte Temperatur (40°C), pH 5.1, t 180 d, 2 mg/3 mL): 88% | degraded at 4320 h ([5]; pH 5.1, Zersetzung, Raumtemperatur (25°C), citrate buffer pH 5.1, 4.5, 3.5): 5%

CC(O)CO (stereo not drawn) [Propylenglykol, 1,2-Propandiol (Propylenglykol)]
geschätzte Menge, welche als tägliche orale Dosis akzeptabel ist [6]: 25 mg/kg kg

CCCN1C[C@@H](NC(=O)N(CC)CC)C[C@@H]2c3cccc4[nH]cc(c34)C[C@H]21 [Protergurid]
Löslichkeit in Wasser [1]: vergleichbare Löslichkeit in Wasser wie Lisurid | solubility ([1]; phosphate-buffered solution, phosphatgepufferte Lösung (pH 7.4)): 26 µg/mL (≈ 70.6 µM)

CCN(CC)C(=O)N[C@H]1C[C@@H]2c3cccc4[nH]cc(c34)C[C@H]2N(C)C1 [Tergurid]
Löslichkeit in Wasser [1]: vergleichbare Löslichkeit in Wasser wie Lisurid
